The results in this text go back to article PMC4286281, “Profiling of the Tox21 Chemical Collection for Mitochondrial Function to Identify Compounds that Acutely Decrease Mitochondrial Membrane Potential” (Environmental Health Perspectives, 2014).

Where a name gives a salt, the structure may show the parent alone. Read-outs that look alike come from different tables or passages of the source.

The test deals with mitochondrial membrane potential (MMP) in HepG2 cells. The experiment in a line: qHTS mitochondrial membrane potential (MMP) assay with m-MPI dye, multiplexed with CellTiter-Glo cell viability. To be noted: for Emax: read-out: Efficacy; for MMP assay activity outcome (active antagonist / inactive / inconclusive): call from triplicate runs, multichannel readout and cell viability. Type of test: cell-based, human.

The mark [1] stands for this setting: Homo sapiens, HepG2, 1 h, read-out: Potency.
Where [2] appears, read: Homo sapiens, HepG2 cells, 1 hr treatment, ratio 590 nm/535 nm, read-out: IC50 in the MMP assay (decrease of MMP).
The mark [3] stands for this setting: Table S4, 20 most potent active compounds for the MMP screen, HepG2, 1 hr.
[4] abbreviates: Table S4, 20 most potent active compounds for the MMP screen, HepG2, 1 hr, read-out: Potency.
Setting [5] is: HepG2 cells, 1 hr treatment, ratio 590 nm/535 nm, read-out: IC50 in the MMP assay (decrease of MMP).

Consider `Nc1ccc(N)c2c1C(=O)c1ccccc1C2=O` [1,4-Diaminoanthraquinone], for which the Emax (Homo sapiens, HepG2, 1 h) was found to be 82%. For the same compound, the IC50 under setting [1] is 33.1 nM.
In the case of `O=C1c2c(O)ccc([N+](=O)[O-])c2C(=O)c2c([N+](=O)[O-])ccc(O)c21` [1,8-Dihydroxy-4,5-dinitroanthraquinone], the Efficacy was found to be 86.4%. The IC50 (read-out: Potency) is 73.4 nM.
Turning to `O=C(c1ccccc1O)c1ccccc1O` [2,2´-dihydroxybenzophenone], the IC50 under setting [2] was found to be 14100 nM.
Turning to `Oc1c(Cl)c(Cl)c(Cl)c(Cl)c1Cl` [2,3,4,5,6-pentachlorophenol], the “MMP assay activity outcome (active antagonist / inactive / inconclusive)” value (HepG2 cells, 1 hr treatment) is listed as “active”.
The compound `NNc1nc(-c2ccc(N)cc2)cs1` [2-Hydrazino-4-(4-aminophenyl) thiazole] showed an Efficacy under setting [3] of 82.5%. Also, the IC50 under setting [4] worked out at 63.5 nM.
With `COc1ccc(C(=O)c2ccccc2)c(O)c1` [2-hydroxy-4-methoxybenzophenone], the “MMP assay activity outcome (active antagonist / inactive / inconclusive)” value (HepG2 cells, 1 hr treatment) is “not active”.
For the compound `O=C(c1ccccc1)c1ccccc1O` [2-hydroxybenzophenone], the “MMP assay activity outcome (active antagonist / inactive / inconclusive)” value (HepG2 cells, 1 hr treatment) was “inactive”.
`O=C(c1ccccc1)c1cccc(O)c1` [3-hydroxybenzophenone]: the IC50 under setting [2] was 27700 nM.
As for `O=C(c1ccc(Cl)cc1)c1ccc(Cl)cc1` [4,4´-dichlorobenzophenone], where the note is “HepG2 cells, 1 hr treatment”, the “MMP assay activity outcome (active antagonist / inactive / inconclusive)” value is “inactive”.
Take `O=C(c1ccc(O)cc1)c1ccc(O)cc1` [4,4´-dihydoxybenzophenone]: the “MMP assay activity outcome (active antagonist / inactive / inconclusive)” value (HepG2 cells, 1 hr treatment) is reported as “inconclusive”.
With `CC(C)(c1ccccc1)c1ccc(O)cc1` [4-(1-methyl-1-phenylethyl)phenol], under “HepG2 cells, 1 hr treatment”, the “MMP assay activity outcome (active antagonist / inactive / inconclusive)” value is given as “active”.
As for `Nc1ccc(O)cc1` [4-aminophenol], the “MMP assay activity outcome (active antagonist / inactive / inconclusive)” value (HepG2 cells, 1 hr treatment) is on record as “active”.
Turning to `O=C(c1ccccc1)c1ccc(O)cc1` [4-hydroxybenzophenone], the IC50 under setting [2] is 41300 nM.
Take `Cc1ccc(C(=O)c2ccccc2)cc1` [4-methylbenzophenone]: the “MMP assay activity outcome (active antagonist / inactive / inconclusive)” value (HepG2 cells, 1 hr treatment) is “inactive”.
On the same count and under the same terms, next, `O=C(c1ccccc1)c1ccccc1` [Benzophenone]: “inactive”.
As to `CCC[CH2][Sn]([CH2]CCC)([CH2]CCC)[O][Sn]([CH2]CCC)([CH2]CCC)[CH2]CCC` [Bis(tributyltin)oxide], the Efficacy came to 112.1% and the “Potency rank in the MMP screen” value is “among the most potent compounds”. Under “read-out: Potency”, the IC50 was 91.1 nM.
On to `Cl.N=C1C=CC(=C(c2ccc(N)cc2)c2ccc(N)cc2)C=C1` [C.I. Basic red 9 monohydrochloride], for which, for the setting “HepG2 cells, 1 hr treatment”, the “Potency rank in the MMP screen” value is reported as “among the most potent compounds”. Moreover, the Efficacy under setting [3] was determined as 95.3%. Further, the IC50 under setting [4] stood at 77 nM.
Regarding `CCOCn1c(-c2ccc(Cl)cc2)c(C#N)c(Br)c1C(F)(F)F` [Chlorfenapyr], the Emax (Homo sapiens, HepG2, 1 h) was determined as 105%. The IC50 under setting [1] is 74.1 nM.
Turning to `CCN1/C(=C/C=C/C=C/c2sc3ccccc3[n+]2CC)Sc2ccccc21` [Dithiazanine iodide], the Emax (Homo sapiens, HepG2, 1 h) was 85.4%. Besides, under setting [1], the IC50 worked out at 95.8 nM.
On to `N#CC(C#N)=NNc1ccc(OC(F)(F)F)cc1` [FCCP, carbonyl cyanide 4-(trifluoromethoxy) phenylhydrazone, reference compound], for which the IC50 (Homo sapiens, HepG2, 1 h, read-out: IC50 of the positive control, decrease of MMP (mean ± SD)) was 110 ± 70 nM.
On to `O=C1OC2(c3ccc(O)cc3Oc3cc(O)ccc32)c2ccccc21` [Fluorescein], for which the Emax (Homo sapiens, HepG2, 1 h) came out at 112%. The IC50 under setting [1] came to 105 nM.
Taken in the same sequence, the figures for `CN(C)c1ccc(C(=C2C=CC(=[N+](C)C)C=C2)c2ccc(N(C)C)cc2)cc1` [Gentian violet] were 91.9% and 78.8 nM.
In the same order, the values of `O=C(Nc1ccc([N+](=O)[O-])cc1Cl)c1cc(Cl)ccc1O` [Niclosamide, reference compound] are 97.7% and 26.3 nM.
For `COc1cccc2c1C(=O)c1c(O)c3c(c(O)c1C2=O)C[C@@](O)(C(=O)CO)C[C@@H]3O[C@H]1C[C@H](N)[C@H](O[C@@H]2CCCCO2)[C@H](C)O1` [Pirarubicin, reference compound], the IC50 under setting [2] was 600 nM.
With `C[C@@H]1O[C@@H](O[C@@H]2C=C3CC[C@@H]4[C@H](CC[C@]5(C)[C@@H](c6ccc(=O)oc6)CC[C@]45O)[C@@]3(C)CC2)[C@H](O)[C@H](O)[C@H]1O` [Proscillaridin, reference compound], the “Potency rank in the MMP screen” value (HepG2 cells, 1 hr treatment) is “among the most potent compounds”. Also, the Emax (Homo sapiens, HepG2, 1 h) was 72.4%. Also, the IC50 under setting [1] was 86.8 nM.
For the compound `CCC[CH2][Sn]([Cl])([CH2]CCC)[CH2]CCC` [Tributyltin chloride], the Efficacy was determined as 96.9% and the “Potency rank in the MMP screen” value is given as “among the most potent compounds”. In addition, for the setting “read-out: Potency”, the IC50 was determined as 107 nM.
`CC(=O)[O][Sn]([c]1ccccc1)([c]1ccccc1)[c]1ccccc1` [Triphenyltin acetate]: the Efficacy is given as 98.7%. Besides, under “HepG2 cells, 1 hr treatment”, the “Potency rank in the MMP screen” value was “among the most potent compounds”. The IC50 (read-out: Potency) amounted to 117 nM.
Taken in the same sequence, the figures for `[OH-].c1cc[c]([Sn+]([c]2ccccc2)[c]2ccccc2)cc1` [Triphenyltin hydroxide] were 94.7%, “among the most potent compounds” and 122 nM.
Consider `CC[C@@]1(O)C[C@H](O[C@H]2C[C@H](N(C)C)[C@H](O[C@H]3C[C@H](O)[C@H](O[C@H]4CCC(=O)[C@H](C)O4)[C@H](C)O3)[C@H](C)O2)c2c(cc3c(c2O)C(=O)c2c(O)cccc2C3=O)[C@H]1C(=O)OC` [aclarubicin hydrochloride, reference compound], for which the “MMP assay activity outcome (active antagonist / inactive / inconclusive)” value (HepG2 cells, 1 hr treatment) is listed as “active”.
For the compound `COc1cccc2c1C(=O)c1c(O)c3c(c(O)c1C2=O)C[C@@](O)(C(=O)CO)C[C@@H]3O[C@H]1C[C@H](N)[C@H](O)[C@H](C)O1` [adriamycin hydrochloride, reference compound], where the note is “HepG2 cells, 1 hr treatment”, the “MMP assay activity outcome (active antagonist / inactive / inconclusive)” value is “inactive”.
Regarding `ClC1=C(Cl)C2(Cl)C3C4C=CC(C4)C3C1(Cl)C2(Cl)Cl` (stereo not drawn) [aldrin], the “MMP assay activity outcome (active antagonist / inactive / inconclusive)” value (HepG2 cells, 1 hr treatment) is recorded as “active as antagonists”.
For the compound `CCN=C1C=CC(=C(c2ccc(N(CC)CC)cc2)c2ccc(N(CC)CC)cc2)c2ccccc21.Cl` [basic blue 7, Basic blue 7], under “HepG2 cells, 1 hr treatment”, the “Potency rank in the MMP screen” value is given as “among the most potent compounds”. Moreover, the IC50 under setting [5] stood at 18.5 nM. Under setting [3], the Efficacy came out at 86.6%.
Turning to `CCC/C=C/C=C/C(=O)O[C@H]1/C(=C/C(=O)OC)C[C@H]2C[C@H]([C@@H](C)O)OC(=O)C[C@H](O)C[C@@H]3C[C@H](OC(C)=O)C(C)(C)[C@](O)(C[C@@H]4C/C(=C/C(=O)OC)C[C@H](/C=C/C(C)(C)[C@]1(O)O2)O4)O3` [bryostatin 1, Bryostatin 1, reference compound], the Emax (Homo sapiens, HepG2, 1 h) worked out at 105%. In addition, the IC50 under setting [1] stood at 9.58 nM and the IC50 under setting [2] amounted to 9.6 nM.
Consider `CCN1/C(=C/C=C/c2ccc3ccccc3[n+]2CC)C=Cc2ccccc21.[I-]` [carbocyanine, Carbocyanine], for which the Efficacy under setting [3] worked out at 90.7%. For the same compound, under setting [4], the IC50 was 14.7 nM.
For `O=C(O)C1C(C(=O)O)C2(Cl)C(Cl)=C(Cl)C1(Cl)C2(Cl)Cl` (stereo not drawn) [chlorendic acid], where the note is “HepG2 cells, 1 hr treatment”, the “MMP assay activity outcome (active antagonist / inactive / inconclusive)” value is “inactive”.
Still for that read-out and setting: next, `CO[C@@H]1[C@H](O)C[C@@H](O[C@@H]2C[C@H](Oc3cc4cc5c(c(O)c4c(O)c3C)C(=O)[C@@H](O[C@H]3C[C@@H](O[C@H]4C[C@@H](O[C@H]6C[C@](C)(O)[C@@H](OC(C)=O)[C@H](C)O6)[C@H](O)[C@@H](C)O4)[C@H](O)[C@@H](C)O3)[C@H]([C@H](OC)C(=O)[C@@H](O)[C@@H](C)O)C5)O[C@H](C)[C@@H]2OC(C)=O)O[C@@H]1C` [chromomycin A3]: “active”; `O=[N+]([O-])c1ccc(O)c([N+](=O)[O-])c1` [dinitrophenol, reference compound]: “inconclusive antagonist (cytotoxic)”.
Turning to `CCCCCCCCCCCCOC(=O)c1ccc(O)cc1` [dodecylparaben], the IC50 under setting [5] worked out at 4200 nM.
For `COC(=O)c1ccc(O)cc1` [methylparaben], under “HepG2 cells, 1 hr treatment”, the “MMP assay activity outcome (active antagonist / inactive / inconclusive)” value was “inactive”.
The same measure, in the same setting: as for `COc1ccc(C(=O)c2ccc(C)cc2)c(O)c1` [mexenone], the entry is “not active”.
As for `C[C@@H]1O[C@@H](O[C@H]2C[C@@H](O)[C@]3(CO)[C@H]4[C@H](O)C[C@]5(C)[C@@H](C6=CC(=O)OC6)CC[C@]5(O)[C@@H]4CC[C@]3(O)C2)[C@H](O)[C@H](O)[C@H]1O` [ouabain, reference compound], the “Potency rank in the MMP screen” value (HepG2 cells, 1 hr treatment) is on record as “among the most potent compounds”.
In the case of `COc1ccc(Cc2nccc3cc(OC)c(OC)cc23)cc1OC` [papaverine, reference compound], the “MMP assay activity outcome (active antagonist / inactive / inconclusive)” value (HepG2 cells, 1 hr treatment) was “inconclusive antagonist (cytotoxic)”.
For the compound `CCCCCOC(=O)c1ccc(O)cc1` [pentylparaben], under setting [2], the IC50 worked out at 8700 nM.
With `CCCOC(=O)c1ccc(O)cc1` [propylparaben], the IC50 under setting [2] was found to be 38600 nM.
On to `C=C(C)[C@H]1Cc2c(ccc3c2O[C@@H]2COc4cc(OC)c(OC)cc4[C@@H]2C3=O)O1` [rotenone, reference compound], for which the “MMP assay activity outcome (active antagonist / inactive / inconclusive)” value (HepG2 cells, 1 hr treatment) is “inconclusive antagonist (cytotoxic)”.
`CC1(C)C(C(Cl)Cl)C2(Cl)C(Cl)C(Cl)C1(Cl)C2(Cl)Cl` (stereo not drawn) [toxaphene]: the “MMP assay activity outcome (active antagonist / inactive / inconclusive)” value (HepG2 cells, 1 hr treatment) is “active as antagonists”.
Regarding `CCCCC(=O)OCC(=O)[C@]1(O)Cc2c(O)c3c(c(O)c2[C@@H](O[C@H]2C[C@H](NC(=O)C(F)(F)F)[C@H](O)[C@H](C)O2)C1)C(=O)c1c(OC)cccc1C3=O` [valrubicin, reference compound], under setting [2], the IC50 worked out at 1900 nM.
